Test results as given in article PMC8563902, “N^1-methyladenosine methylation in tRNA drives liver tumourigenesis by regulating cholesterol metabolism” (Nature Communications, 2021).

Biological target: TRMT6/TRMT61A complex (Homo sapiens, UniProt Q96FX7+Q9UJA5)
Assay: screen for block of TRMT6/TRMT61A interaction in vitro; m1A by LC-MS/MS in treated PLC/PRF/[…] cells
Format: cell-based
Conditions: blocks subunit interaction (method not described); m1A read in cells treated at the proliferation IC50

Chain of TRMT6/TRMT61A complex (Q96FX7 2-289): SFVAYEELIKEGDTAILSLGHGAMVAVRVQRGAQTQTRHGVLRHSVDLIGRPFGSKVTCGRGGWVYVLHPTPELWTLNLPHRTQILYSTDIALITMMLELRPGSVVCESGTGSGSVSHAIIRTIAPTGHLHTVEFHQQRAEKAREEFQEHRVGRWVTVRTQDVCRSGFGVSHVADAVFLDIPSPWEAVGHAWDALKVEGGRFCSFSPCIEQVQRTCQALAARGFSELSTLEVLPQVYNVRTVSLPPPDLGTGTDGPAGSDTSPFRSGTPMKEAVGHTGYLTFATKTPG
Chain of TRMT6/TRMT61A complex (Q9UJA5 whole entry): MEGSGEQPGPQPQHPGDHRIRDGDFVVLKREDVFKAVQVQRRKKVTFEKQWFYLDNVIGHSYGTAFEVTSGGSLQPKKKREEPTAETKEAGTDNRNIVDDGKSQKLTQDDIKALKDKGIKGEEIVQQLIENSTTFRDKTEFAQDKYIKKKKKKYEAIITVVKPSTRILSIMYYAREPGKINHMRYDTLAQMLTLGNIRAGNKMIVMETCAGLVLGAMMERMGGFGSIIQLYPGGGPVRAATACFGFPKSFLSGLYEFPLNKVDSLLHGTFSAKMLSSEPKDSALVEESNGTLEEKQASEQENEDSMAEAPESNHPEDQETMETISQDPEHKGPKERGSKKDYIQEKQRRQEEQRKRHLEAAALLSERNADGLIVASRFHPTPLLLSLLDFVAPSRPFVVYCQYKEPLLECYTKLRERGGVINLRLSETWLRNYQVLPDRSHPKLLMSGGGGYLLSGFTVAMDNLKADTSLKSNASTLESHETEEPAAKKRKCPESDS

Compound: CN(C)C(=S)SSC(=S)N(C)C [thiram]
- screen for block of TRMT6/TRMT61A interaction in vitro; m1A by LC-MS/MS in treat: thiram acts as an efficient inhibitor against TRMT6/TRMT61A complex
